The source of these data is patent US10570117B2, “Phenylimidazole compound” (Otsuka Pharmaceutical Factory, Inc., priority 2015, dated 2020).

The nature of data set [1]: Solubility in gastric juice or intestinal juice model fluid (precipitation method using DMSO). It is filed as physicochemical. The conditions noted are these: room temperature. How it is done:
Solubility in Gastric Juice or Intestinal Juice Model Fluid
Measurement was performed by a precipitation method using DMSO. Specifically, each of the dimethyl sulfoxide (DMSO) solutions of the compounds was individually added to 1st fluid for Disintegration Test of Japanese Pharmacopoeia (pH: 1.2) or 2nd fluid for Disintegration Test of Japanese Pharmacopoeia (pH: 6.8), and the mixtures were stirred by shaking at room temperature for 24 hours. Subsequently, insoluble substances in each mixture were removed by filtration, and the UV absorption of each filtrate was measured. The obtained values were individually applied to the calibration curves of the compounds prepared in advance to calculate the concentrations of the compounds dissolved (μg/mL).

Where [2] appears, read: pH 1.2, simulated gastric fluid, kinetic from dmso stock, 1st fluid for Disintegration Test of Japanese Pharmacopoeia (pH: 1.2), read-out: Solubility (μg/mL) 1st fluid.
Where [3] appears, read: pH 6.8, kinetic from dmso stock, 2nd fluid for Disintegration Test of Japanese Pharmacopoeia (pH: 6.8), read-out: Solubility (μg/mL) 2nd fluid.
Setting [4] is: 2nd fluid for Disintegration Test of Japanese Pharmacopoeia (pH: 6.8), 24 hours.

Converted amounts (≈) assume the structure as drawn. Like-named read-outs stand apart in the source and are kept apart here.

A word on the melting point: it is the temperature, or range, at which the solid turns liquid. In the case of `COc1ccc(-c2nc(-c3ccc(OCc4ccc(C(F)(F)F)cn4)c(OC)c3)c[nH]2)cn1` [Example 70], the melting point is 217 to 218 °C (dec.).
Regarding `COc1cc(-c2[nH]c(-c3ccc(F)nc3)nc2Cl)ccc1OCc1ccc(C(F)(F)F)nc1` [Example 177], the melting point lay in the range of 202 to 204 °C.
For the compound `COc1cc(OCc2ccc(C(F)(F)F)nc2)ccc1-c1c[nH]c(-c2ccc(Cl)nc2)n1` [Example 54], the melting point lay within 218 to 220 °C.
`COc1cc(OCc2ccc(Br)cc2F)ccc1-c1c[nH]c(-c2ccc(Cl)nc2)n1` [Example 92] returned a melting point of 220 to 222 °C.
Take `COc1cc(OCc2cccc(C#N)n2)ccc1-c1[nH]c(C2CCC(F)(F)CC2)nc1Cl` [Example 186]: the solubility at 24 h was 23.2 µg/mL (≈ 50.6 µM) in data set [1] (setting [2]) and less than 0.3 µg/mL in data set [1] (setting [3]).
For the compound `COc1cc(O[C@H](C)c2ccc(C(F)(F)F)nc2)ccc1-c1cnc(-c2ccc(F)nc2)[nH]1` [Example 146], the “Solubility (μg/mL) 2nd fluid” value in data set [1] (setting [4]) was 1.2 µg/mL (≈ 2.62 µM). For the same compound, the solubility at 24 h in data set [1] (setting [2]) is 9.9 µg/mL (≈ 21.6 µM).
On to `COc1cc(OCc2cnccc2C(F)(F)F)ccc1-c1[nH]c(-c2ccc(F)nc2)nc1Cl` [Example 257], for which the melting point is 133 to 153 °C.
`COc1cc(-c2c[nH]c(-c3ccc(F)nc3)n2)ccc1OCc1ccc(C(F)(F)F)cn1` [Example 125]: the figures for the solubility at 24 h in data set [1] (setting [2]) and in data set [1] (setting [3]) were 23.1 µg/mL (≈ 52 µM) and 0.5 µg/mL (≈ 1.13 µM), respectively.
Regarding `COc1cc(OCc2cnc(Cl)cn2)ccc1-c1nc(-c2ccc(F)nc2)[nH]c1Cl` [Example 217], the melting point is 231 to 233 °C (dec.).
As for `COc1cc(OCc2cnccn2)ccc1-c1c[nH]c(-c2ccc(Cl)nc2)n1` [Example 50], the melting point is 210 to 213 °C (dec.).
Turning to `COc1cc(O[C@H](C)c2ccc(C(F)(F)F)cc2)ccc1-c1cnc(-c2ccc(F)nc2)[nH]1` [Example 148], the solubility at 24 h in data set [1] (setting [2]) is less than 0.3 µg/mL; in data set [1] (setting [3]), 5.3 µg/mL (≈ 11.6 µM).
Turning to `COc1cc(OCc2ccc(Br)cc2F)ccc1-c1c[nH]c(-c2ccccn2)n1` [Example 90], the melting point was 219 to 222 °C.
Same read-out and setting: then `COc1cc(OCc2ncc(Cl)cc2F)ccc1-c1[nH]c(-c2ccc(F)nc2)nc1Cl` [Example 283], with 172 to 175 °C.
Consider `COc1cc(-c2cnc(C3CC(F)(F)C3)[nH]2)ccc1OCc1ccc(C(F)(F)F)cn1` [Example 11], for which the solubility at 24 h in data set [1] (setting [2]) is 80.1 µg/mL (≈ 182 µM); in data set [1] (setting [3]), 5.4 µg/mL (≈ 12.3 µM).
Turning to `COc1cc(OCc2ccc(C(F)(F)F)cn2)ccc1-c1nc(-c2ccc(F)cn2)[nH]c1Cl` [Example 231], the melting point is 222 to 224 °C (dec.).
Same read-out and setting: in the case of `COc1cc(OC(C)c2ccc(C(F)(F)F)nc2)ccc1-c1cnc(-c2ccc(F)nc2)[nH]1` (centres unmarked) [Example 130] it was 72 to 105 °C; in that of `COc1cc(OCc2ccc(C(F)(F)F)cn2)ccc1-c1c[nH]c(-c2ccc(C(F)(F)F)nc2)n1` [Example 96], 209 to 211 °C; in that of `COc1cc(OCc2ncc(Br)cc2F)ccc1-c1[nH]c(-c2ccc(Cl)nc2)nc1Br` [Example 250], 174 to 179 °C.
For `COc1cc(O[C@@H](C)c2ccc(C(F)(F)F)cc2)ccc1-c1cnc(-c2ccc(F)nc2)[nH]1` [Example 145], the solubility at 24 h in data set [1] (setting [2]) was less than 0.3 µg/mL; in data set [1] (setting [3]) it was 4 µg/mL (≈ 8.74 µM).
In turn, `COc1cc(OCc2ccc(C(F)(F)F)nc2)ccc1-c1c(Cl)nc(-c2ccc(Cl)nc2)n1C` [Example 307] showed a melting point of 149 to 151 °C.
For `COc1cc(OCc2ccc(Cl)cc2F)ccc1-c1[nH]c(-c2ccc(F)nc2)nc1Cl` [Example 286], the melting point lay in the range of 163 to 166 °C.
Same read-out and setting: in the case of `COc1cc(OCc2ccc(C(F)(F)F)cn2)ccc1-c1c[nH]c(-c2ccc(SC(C)(C)C)cn2)n1` [Example 59] it was 159 to 160 °C; in that of `COc1cc(OCc2cccnc2C(F)(F)F)ccc1-c1[nH]c(-c2ccc(Cl)nc2)nc1Cl` [Example 243], 195 to 199 °C; in that of `COc1cc(OCc2cc(C(F)(F)F)ccn2)ccc1-c1[nH]c(-c2ccc(F)nc2)nc1Br` [Example 269], 179 to 181 °C.
`COc1cc(-c2c[nH]c(C3CCCCC3)n2)ccc1OCc1ccc(C(F)(F)F)nc1` [Example 51]: the solubility at 24 h in data set [1] (setting [2]) was 90.2 µg/mL (≈ 209 µM); in data set [1] (setting [3]), 9 µg/mL (≈ 20.9 µM).
For the compound `COc1cc(OC(C)c2ncc(C(F)(F)F)cc2F)ccc1-c1cnc(-c2ccc(F)nc2)[nH]1` (centres unmarked) [Example 129], the results for the solubility at 24 h in data set [1] (setting [2]) and in data set [1] (setting [3]) were 13.6 µg/mL (≈ 28.5 µM) and less than 0.3 µg/mL, respectively.
With `COc1cc(OCc2cccc(C(F)(F)F)n2)ccc1-c1[nH]c(-c2ccc(Cl)nc2)nc1Cl` [Example 282], the melting point is 190 to 193 °C.
For the compound `COc1cc(OC(C)c2cccc(C(F)(F)F)n2)ccc1-c1cnc(-c2ccc(F)nc2)[nH]1` (centres unmarked) [Example 127], the solubility at 24 h in data set [1] (setting [2]) was 17.1 µg/mL (≈ 37.3 µM); in data set [1] (setting [3]), less than 0.3 µg/mL.
With `COc1cc(OCc2cccc(C(F)(F)F)n2)ccc1-c1cnc(-c2ccc(F)nc2)[nH]1` [Example 113], the solubility at 24 h in data set [1] (setting [2]) is 21.1 µg/mL (≈ 47.5 µM); in data set [1] (setting [3]) it was 0.5 µg/mL (≈ 1.13 µM).
In turn, `COc1cc(OCc2ccc(F)cc2F)ccc1-c1cnc(-c2ccc(Cl)nc2)[nH]1` [Example 101] returned a melting point of 213 to 218 °C.
`COc1cc(-c2nc(-c3ccc(Cl)nc3)[nH]c2C)ccc1OCc1ccc(C(F)(F)F)nc1` [Example 28] gave a melting point of 209 to 211 °C.
For the compound `COc1cc(-c2cnc(C3CCC(F)(F)C3)[nH]2)ccc1OCc1ccc(C(F)(F)F)cn1` (centres unmarked) [Example 10], the results for the solubility at 24 h in data set [1] (setting [2]) and in data set [1] (setting [3]) were 89.5 µg/mL (≈ 197 µM) and 17.3 µg/mL (≈ 38.2 µM), respectively.
For `COc1cc(-c2cnc(C3CCCC(F)(F)C3)[nH]2)ccc1OCc1ccc(C(F)(F)F)cn1` (centres unmarked) [Example 5], the solubility at 24 h is 90.1 µg/mL (≈ 193 µM) in data set [1] (setting [2]) and 1.1 µg/mL (≈ 2.35 µM) in data set [1] (setting [3]).
On to `COc1cc(OCc2ccc(Br)cc2F)ccc1-c1cnc(-c2ccc(F)nc2)[nH]1` [Example 144], for which the melting point is 177 to 180 °C.
Same read-out and setting: then `COc1cc(OCc2ncc(Br)cc2F)ccc1-c1[nH]c(-c2ccc(Cl)nc2)nc1Cl` [Example 251], with 189 to 191 °C.
`COc1cc(OCc2ccc(Br)cc2F)ccc1-c1[nH]c(-c2ccc(F)nc2)nc1Cl` [Example 284] yielded a melting point of 183 to 185 °C.
As for `CCOc1ccc(-c2nc(-c3ccc(OCc4ccc(Br)cc4F)cc3OC)c[nH]2)cn1` [Example 84], the melting point lay within 181 to 184 °C.
Consider `COc1cc(-c2cnc(C3CC(F)(F)C3)[nH]2)ccc1OCc1ccc(C(F)(F)F)nc1` [Example 2], for which the solubility at 24 h in data set [1] (setting [2]) was greater than 88 µg/mL; in data set [1] (setting [3]), 25.1 µg/mL (≈ 57.1 µM).
Consider `COc1cc(OCc2ccc(Br)cc2F)ccc1-c1c[nH]c(-c2ccc(C(F)(F)F)nc2)n1` [Example 99], for which the melting point is 183 to 185 °C.
As to `COc1cc(OCc2ccc(C(F)(F)F)cn2)ccc1-c1nc(-c2ccc(Cl)cn2)[nH]c1Cl` [Example 232], the melting point is 197 to 199 °C (dec.).
`COc1cc(OCc2ccnc(C(F)(F)F)c2)ccc1-c1[nH]c(-c2ccc(F)nc2)nc1Cl` [Example 272] gave a melting point of 236 to 238 °C.
With `COc1cc(-c2c[nH]c(-c3ccc(C(F)(F)F)nc3)n2)ccc1OCc1ccc(Br)cc1F` [Example 95], the melting point lay in the range of 175 to 177 °C.
As for `COc1cc(-c2c[nH]c(-c3ccc(Cl)nc3)n2)ccc1OCc1ccc(C(F)(F)F)nc1` [Example 52], the melting point is 179 to 181 °C.
In turn, `COc1cc(OCc2cc(C(F)(F)F)ccn2)ccc1-c1[nH]c(-c2ccc(F)nc2)nc1Cl` [Example 173] gave a melting point of 185 to 187 °C.
As for `COc1cc(O[C@H](C)c2ccc(C(F)(F)F)nc2)ccc1-c1cnc(-c2ccc(F)nc2)[nH]1` [Example 149], the “Solubility (μg/mL) 1st fluid” value in data set [1] (1st fluid for Disintegration Test of Japanese Pharmacopoeia (pH: 1.2), 24 hours) came out at 19.6 µg/mL (≈ 42.8 µM). For the same compound, the “Solubility (μg/mL) 2nd fluid” value in data set [1] (setting [4]) was found to be 3.9 µg/mL (≈ 8.51 µM).
Consider `COc1cc(-c2cnc(-c3ccc(F)nc3)[nH]2)ccc1O` [Example 110, 4-[2-(6-fluoropyridin-3-yl)-1H-imidazol-5-yl]-2-methoxyphenol], for which the solubility at 24 h in data set [1] (setting [2]) and in data set [1] (setting [3]) was greater than 57 µg/mL each time.
With `COc1cc(OCc2ccc(C(F)(F)F)nc2)ccc1-c1[nH]c(-c2ccc(F)nc2)nc1F` [Example 320], the melting point fell in the range of 194 to 196 °C.
Compound `COc1cc(OCc2ccc(Cl)cc2F)ccc1-c1cnc(-c2ccc(F)nc2)[nH]1` [Example 143] had a melting point of 178 to 180 °C.
On to `COc1cc(OCc2ccc(C#N)cn2)ccc1-c1c[nH]c(-c2ccc(Cl)nc2)n1` [Example 35], for which the melting point is 233 to 237 °C (dec.).
On to `COc1cc(OCc2cc(C(F)(F)F)ccn2)ccc1-c1[nH]c(-c2ccc(Cl)nc2)nc1Cl` [Example 174], for which the melting point was in the range of 176 to 178 °C.
Compound `COc1cc(OCc2ccc(F)cc2F)ccc1-c1[nH]c(-c2ccc(Cl)nc2)nc1Cl` [Example 244] came in with a melting point of 173 to 177 °C.
On to `COc1cc(O[C@@H](C)c2ccc(C(F)(F)F)nc2)ccc1-c1cnc(-c2ccc(F)nc2)[nH]1` [Example 147], for which the solubility at 24 h in data set [1] (setting [2]) is 12.4 µg/mL (≈ 27 µM); in data set [1] (setting [3]), 3.6 µg/mL (≈ 7.85 µM).
For `COc1cc(OCc2ccc(C(F)(F)F)cn2)ccc1-c1cnc(C2CC(F)(F)C2)[nH]1` [Example 9] the same measures were 87.7 µg/mL (≈ 200 µM) and 1.8 µg/mL (≈ 4.1 µM).
Compound `COc1cc(OCc2cnc(Cl)cn2)ccc1-c1nc(-c2ccc(Cl)nc2)[nH]c1Cl` [Example 215] displayed a melting point of 232 to 234 °C.
